The assay deals with clinical isolates of M. tuberculosis. Nature of the assay: microbe, parasite or virus in culture. The note with it: Mycobacterium tuberculosis. In kind it is cell-based.

Converted amounts (≈) assume the structure as drawn. Read-outs that look alike come from different tables or passages of the source.

For the compound `COC(=O)/C=C/C(=O)c1ccc(OC)cc1` [IMB-YH-8], the MIC reads like this: (clinical isolate 3303, resistant to INH, STR) 0.5 mg/L (≈ 2.27 µM); (clinical isolate 4201, resistant to RIF) 0.25 mg/L (≈ 1.14 µM); (clinical isolate 5112, resistant to INH, RIF, STR, EMB) 0.25 mg/L (≈ 1.14 µM); (clinical isolate 5116, resistant to INH, RIF) 0.25 mg/L (≈ 1.14 µM); (clinical isolate 5120, resistant to INH, STR, EMB) 0.5 mg/L (≈ 2.27 µM); (clinical isolate 6133, resistant to INH, RIF) 0.25 mg/L (≈ 1.14 µM). In addition, the MIC runs as follows: (clinical isolate 7153, resistant to INH, RIF) 1 mg/L (≈ 4.54 µM); (clinical isolate 11277, resistant to INH, RIF, STR) 0.5 mg/L (≈ 2.27 µM); (clinical isolate 12179, resistant to INH, RIF) 0.25 mg/L (≈ 1.14 µM); (clinical isolate 12251, resistant to INH, RIF) 0.5 mg/L (≈ 2.27 µM); (clinical isolate 16559, resistant to STR, OFX) 0.5 mg/L (≈ 2.27 µM); (clinical isolate 20161, resistant to INH, RIF) 0.5 mg/L (≈ 2.27 µM). Also, the MIC is 0.25 mg/L (≈ 1.14 µM) (clinical isolate 23120, resistant to INH, RIF, STR); 0.5 mg/L (≈ 2.27 µM) (clinical isolate 23443, resistant to RIF); 0.25 to 1 mg/L (≈ 1.14 to 4.54 µM) (read-out: MICs for drug-resistant isolates).

Source of the values: article PMC5506005, “A novel protein kinase inhibitor IMB-YH-8 with anti-tuberculosis activity” (Scientific Reports, 2017).
